Laboratory results published in patent US7674906B2, “Tetracyclic immunomodulatory compounds” (Active Biotech AB, priority 2002, dated 2010).

What follows are compounds tested against T1, CD80-CD 28 interaction (Homo sapiens, UniProt P33681) (assay: cell free Homogenous Time Resolved Fluorescence (HTRF) assay, inhibition of the CD80-CD28 interaction). Conditions: CD28-mouse Fc fusion protein and CD80 mouse Fab fragment (C215) fusion protein, 4 hours at room temperature, concentration series 100 μM-1.7 nM.
T1 sequence (P33681 35-242 limits assumed): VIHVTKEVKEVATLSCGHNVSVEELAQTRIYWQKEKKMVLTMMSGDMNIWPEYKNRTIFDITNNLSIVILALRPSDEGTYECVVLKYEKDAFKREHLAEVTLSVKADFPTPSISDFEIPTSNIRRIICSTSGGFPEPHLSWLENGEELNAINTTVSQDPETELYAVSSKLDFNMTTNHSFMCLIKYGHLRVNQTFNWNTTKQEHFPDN
Assay type: binding
Protocol: The examples described above were tested in a cell free Homogenous Time Resolved Fluorescence (HTRF) assay to determine their activity as inhibitors of the CD80-CD 28 interaction.
In the assay, europium and allophycocyanin (APC) are associated with CD28 and CD80 indirectly (through anti-body linkers) to form a complex, which brings the europium and APC into close proximity to generate a signal. The complex comprises the following six proteins: fluorescent label 1, linker antibody 1, CD28 fusion protein, CD80 fusion protein, linker antibody 2, and fluorescent label 2. The table below describes these reagents in greater detail.
On formation of the complex, europium and APC are brought into proximity and a signal is generated.
Non-specific interaction was measured by substituting a mouse Fab fragment (C215) for the CD80 mouse Fab fragment fusion protein (1.9 μg/ml). The assay was carried out in black 384 well plates in a final volume of 30 μl. Assay buffer: 50 mM Tris-HCl, 150 mM NaCl pH7.8, containing 0.1% BSA (w/v) added just prior to use.
Compounds were added to the above reagents in a concentration series ranging between 100 μM-1.7 nM. The reaction was incubated for 4 hours at room temperature. Dual measurements were made using a Wallac Victor 1420 Multilabel Counter. First measurement: excitation 340 nm, emission 665 nm, delay 50 μs, window time 200 μs. second measurement: excitation 340 nm, emission 615 nm, delay 50 μs, window time 200 μs. Counts were automatically corrected for fluorescence crossover, quenching and background.

IC50 [µM]	Structure (SMILES)
8.6	O=C(O)c1ccc(-n2nc3c4ccccc4[nH]c(-c4cccc([N+](=O)[O-])c4)c-3c2=O)cc1 [Example 5, 4-[4-(3-Nitro-phenyl)-3-oxo-3,5-dihydro-pyrazolo[4,3-c]-quinolin-2-yl]-benzoic acid]
3.4	COc1ccc(-c2[nH]c3ccccc3c3nn(-c4ccc(C(=O)O)cc4)c(=O)c2-3)cc1 [Example 7, 4-[4-(4-Methoxyphenyl)-3-oxo-3,5-dihydropyrazolo[4,3-c]-quinolin-2-yl]benzoic acid]
4.6	COc1ccc(-c2[nH]c3ccccc3c3nn(-c4cccc(C(=O)O)c4)c(=O)c2-3)cc1 [Example 9]
